Test results reported in PubChem BioAssay AID1963843 (Molecular Pharmacology Branch, DTP, NCI, 2024).

System: 616215-338-R-J1-PDC complex spheroid viability
Test: Anticancer human tumor 616215-338-R-J1-PDC patient-derived colon adenocarcinoma cell line growth inhibition [POLQ]
Conditions: for IC50: curve of first compound; for viability, T/C: stronger effect = lower value
Description: Multicellular complex tumor spheroid response to Polymerase (POL) inhibitors (novobiocin, ART-558, RP6685) in combination with a variety of drugs and investigational agents in selected tumor cell lines
The POL inhibitors (novobiocin, ART-558, and RP6685) were evaluated both individually and in combination with standard of care and investigational anticancer small molecules within a complex spheroid model of solid tumors. . Complex spheroids include a stromal component modeled by human endothelial cells (HUVEC) and fibroblasts modeled by human mesenchymal stem cells (MSCs). The concentration ranges selected for each drug and investigational agent were based upon clinically achievable concentrations if the clinical Cmax of the agent was known.
Compounds. The drugs and investigational agents: novobiocin (NSC847541), ART-558 (NSC835418), RP-6685 (NSC848927), peposertib (NSC802822), ceralasertib (NSC780249), elimusertib (NSC800525), camonsertib (NSC841442), AZD-1390 (NSC803789), olaparib (NSC753686), talazoparib (NSC767125), rucaparib (NSC756644), sotorasib (NSC818433), MRTX-1133 (NSC836407), SN-38 (NSC673596), topotecan (NSC609699), epotoside (NSC141540), doxorubicin (NSC123127), gemcitabine (NSC613327), 5-fluorouracil (NSC19893), paclitaxel (NSC125973), vemurafenib (NSC761431), MSA-2 (NSC828583), SN-011 (NSC837082), adavosertib (NSC754352), prexasertib (NSC758257), carboplatin (NSC241240) and oxaliplatin (NSC266046), were obtained from the National Cancer Institute (NCI) Developmental Therapeutics Program Chemical Repository (21). The FDA-approved anticancer drug set is available from the Developmental Therapeutics Program at https://dtp.cancer.gov/organization/dscb/obtaining/. […] The stock solutions were prepared in dimethyl sulfoxide (DMSO, Sigma-Aldrich, St. Louis, MO, cat. D2650), except for the platinum compounds which were prepared in saline (Quality Biological, Gaithersburg, MD, cat. 114-055-101), at 800-fold the tested concentration and stored at -70 degrees C prior to their use. All drugs and investigational agents were tested over a range starting from a high concentration at or near the clinical Cmax and decreasing in half-log increments. If the clinical Cmax for an agent had not been determined, the highest concentration tested was 10 microM, except for SN-38, which was tested at a high concentration of 1 microM.
Cell Culture. All cells were maintained in an incubator at 37 degrees C and 5% CO2 with 95% humidity. The PDC lines were cultured according to standard operating procedures established by the NCI PDMR (https://pdmr.cancer.gov). Table 3 of the manuscript, lists the cell lines along with the number of the three cell types plated to form the mct-spheroids and media for tumor cell growth. After thawing, all PDC lines, except 997537-175-T-J1-PDC and 415267-285-R-J2-PDC, were cultured in Matrigel-coated flasks prepared with a working solution of 1X Ham's F-12 nutrient mix, without supplementation (Thermo Fisher Scientific, cat. 11765054), 100 U/mL penicillin-streptomycin (Thermo Fisher Scientific, cat. 15140122), and 2.5% Matrigel (Corning Inc., Corning, NY, cat. 354248) for the first three passages. The two PDC lines 997537-175-T-J1-PDC and 415267-285-R-J2-PDC were cultured on uncoated flasks. The 857933-349-R-J2-PDC line was cultured in 6C/Colon 1B media containing advanced DMEM/F-12 (Thermo Fisher Scientific, cat. 12634028), 10 mM HEPES (Thermo Fisher Scientific, cat. 15630080), 1X GlutaMAX supplement (Thermo Fisher Scientific, cat. 35050061), 0.1 mg/mL primocin (InvivoGen, San Diego, CA, cat. ant-pm-2), 10% defined fetal bovine serum, heat inactivated (HyClone Laboratories Inc., Logan, UT, cat. SH30070.03HI), 50% L-WRN conditioned media (ATCC, cat. CRL-3276), 1.25 mM N-Acetyl-L-cysteine (Sigma-Aldrich, cat. A9165), 10 mM nicotinamide (Sigma-Aldrich, cat. N0636), 1X B-27 supplement (Thermo Fisher Scientific, cat. 17504044), 1X N-2 supplement (Thermo Fisher Scientific, cat. […]
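Further: spheroids exposed to compounds for one week before readout.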
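Wherever viability, T/C is given: percent viability relative to DMSO vehicle wells taken as 100%.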

Question: How did the IC50 (second compound 0.0316 µM) turn out when `COc1cc2cc(C(=O)CCC(=O)O)sc2cc1OC` + COC1C(OC(N)=O)C(O)C(Oc2ccc3c(O)c(NC(=O)c4ccc(O)c(CC=C(C)C)c4)c(=O)oc3c2C)OC1(C)C was run?
Answer: > 10 µM

Question: And the IC50 (second compound 0.1 µM)?
Answer: > 10 µM

Question: And the IC50 (second compound 0.316 µM)?
Answer: > 10 µM

Question: What about the IC50 (second compound 1 µM) of the same molecule?
Answer: > 10 µM

Question: What about the IC50 (second compound 3.16 µM) of the same molecule?
Answer: > 10 µM

Question: What about the IC50 (second compound 10 µM) of the same molecule?
Answer: > 10 µM

Question: What about the viability, T/C (second compound 0.0316 µM, first compound 0.0316 µM) of the same molecule?
Answer: 110%

Question: And the viability, T/C (second compound 0.0316 µM, first compound 0.1 µM)?
Answer: 103%

Question: What about the viability, T/C (second compound 0.0316 µM, first compound 0.316 µM) of the same molecule?
Answer: 102%

Question: And the viability, T/C (second compound 0.0316 µM, first compound 1 µM)?
Answer: 105%

Question: What about the viability, T/C (second compound 0.0316 µM, first compound 3.16 µM) of the same molecule?
Answer: 102%

Question: What about the viability, T/C (second compound 0.0316 µM, first compound 10 µM) of the same molecule?
Answer: 113%

Question: And the viability, T/C (second compound 0.1 µM, first compound 0.0316 µM)?
Answer: 95.4%

Question: What about the viability, T/C (second compound 0.1 µM, first compound 0.1 µM) of the same molecule?
Answer: 101%

Question: And the viability, T/C (second compound 0.1 µM, first compound 0.316 µM)?
Answer: 109%

Question: What about the viability, T/C (second compound 0.1 µM, first compound 1 µM) of the same molecule?
Answer: 97.7%

Question: What about the viability, T/C (second compound 0.1 µM, first compound 3.16 µM) of the same molecule?
Answer: 103%

Question: And the viability, T/C (second compound 0.1 µM, first compound 10 µM)?
Answer: 97.2%

Question: What about the viability, T/C (second compound 0.316 µM, first compound 0.0316 µM) of the same molecule?
Answer: 115%

Question: What about the viability, T/C (second compound 0.316 µM, first compound 0.1 µM) of the same molecule?
Answer: 94.9%

Question: And the viability, T/C (second compound 0.316 µM, first compound 0.316 µM)?
Answer: 107%

Question: What about the viability, T/C (second compound 0.316 µM, first compound 1 µM) of the same molecule?
Answer: 95.1%

Question: And the viability, T/C (second compound 0.316 µM, first compound 3.16 µM)?
Answer: 101%

Question: What about the viability, T/C (second compound 0.316 µM, first compound 10 µM) of the same molecule?
Answer: 101%

Question: And the viability, T/C (second compound 1 µM, first compound 0.0316 µM)?
Answer: 102%

Question: And the viability, T/C (second compound 1 µM, first compound 0.1 µM)?
Answer: 88.2%

Question: And the viability, T/C (second compound 1 µM, first compound 0.316 µM)?
Answer: 106%

Question: What about the viability, T/C (second compound 1 µM, first compound 1 µM) of the same molecule?
Answer: 98.7%

Question: What about the viability, T/C (second compound 1 µM, first compound 3.16 µM) of the same molecule?
Answer: 99.7%

Question: And the viability, T/C (second compound 1 µM, first compound 10 µM)?
Answer: 106%

Question: And the viability, T/C (second compound 3.16 µM, first compound 0.0316 µM)?
Answer: 107%

Question: What about the viability, T/C (second compound 3.16 µM, first compound 0.1 µM) of the same molecule?
Answer: 99.9%

Question: And the viability, T/C (second compound 3.16 µM, first compound 0.316 µM)?
Answer: 109%

Question: And the viability, T/C (second compound 3.16 µM, first compound 1 µM)?
Answer: 102%

Question: And the viability, T/C (second compound 3.16 µM, first compound 3.16 µM)?
Answer: 99.6%

Question: And the viability, T/C (second compound 3.16 µM, first compound 10 µM)?
Answer: 113%

Question: And the viability, T/C (second compound 10 µM, first compound 0.0316 µM)?
Answer: 109%

Question: What about the viability, T/C (second compound 10 µM, first compound 0.1 µM) of the same molecule?
Answer: 91.7%

Question: And the viability, T/C (second compound 10 µM, first compound 0.316 µM)?
Answer: 102%

Question: What about the viability, T/C (second compound 10 µM, first compound 1 µM) of the same molecule?
Answer: 104%

Question: And the viability, T/C (second compound 10 µM, first compound 3.16 µM)?
Answer: 97%

Question: And the viability, T/C (second compound 10 µM, first compound 10 µM)?
Answer: 102%
